Where two headings read alike, the source gives them in different places.
Assays:
[1] = at 170 C; cited from earlier work
[2] = Wet milling chlorothalonil with 0.5-0.6 mm cerium-doped zirconium oxide beads, particle size by Sedigraph; format: physicochemical
Protocol: (§1) The laboratory-sized vertical mill was provided by C B Mills, model# L-3-J. The mill has a 2 liter capacity and is jacketed for cooling. Unless otherwise specified, ambient water was cycled through the mill cooling jacket during operation. The internal dimensions are 3.9″ diameter by 9.1″ height. The mill uses a standard 3×3″ disk agitator (mild steel) on a stainless steel shaft, and it operates at 2,620 rpm.
(§2) The media used in this Example was 0.4-0.5 mm zirconium silicate beads supplied by C B Mills. All particle size determinations were made with a Sedigraph™ 5100T manufactured by Micromeritics, which uses x-ray detection and bases calculations of size on Stokes' Law.
The same mill and conditions were used in this experiment as in experiment 1. However, the grinding media was 0.5-0.6 mm cerium-doped zirconium oxide beads obtained from CB Mills. The density of the cerium doped zirconium oxide is ˜6.0 g/cm^3. […] The total batch weight was about 600 g.

[3] = cited from earlier work
[4] = format: physicochemical; conditions: 0.4-0.5 mm zirconium silicate
Protocol: as §1, §2
The total batch weight was about 600 g.

[5] = Milling Time 0 Mins., 0.5-0.6 mm cerium-doped zirconium oxide
[6] = Milling Time 90 Mins., 0.5-0.6 mm cerium-doped zirconium oxide
[7] = Milling Time 240 Mins., 0.5-0.6 mm cerium-doped zirconium oxide
[8] = obtainable in 6 hours, 0.5 mm zirconia milling media
[9] = 0.1 cm zirconia, 10 minutes, US 2004/0063847, 2003/0040569

Structure (SMILES): N#Cc1c(Cl)c(Cl)c(Cl)c(C#N)c1Cl [chlorothalonil, 2,4,5,6-tetrachloro-1,3-dicyanobenzene]
- volatility [1]: 9.2 mmHg
- Volume % With Diameter Greater Than 1 μm [2, 5]: 92 Volume %
- Volume % With Diameter Greater Than 2 μm [2, 5]: 77 Volume %
- Volume % With Diameter Greater Than 5 μm [2, 5]: 30 Volume %
- Volume % With Diameter Greater Than 10 μm [2, 5]: 8 Volume %
- d50 [2, 5]: 3.44 μm
- Volume % With Diameter Greater Than 0.4 μm [2, 6]: 22 Volume %
- Volume % With Diameter Greater Than 1 μm [2, 6]: 3 Volume %
- Volume % With Diameter Greater Than 2 μm [2, 6]: 3 Volume %
- Volume % With Diameter Greater Than 5 μm [2, 6]: 3 Volume %
- Volume % With Diameter Greater Than 10 μm [2, 6]: 3 Volume %
- Volume % With Diameter Greater Than 0.2 μm [2, 7]: 51 Volume %
- Volume % With Diameter Greater Than 0.4 μm [2, 7]: 3 Volume %
- Volume % With Diameter Greater Than 1 μm [2, 7]: 3 Volume %
- Volume % With Diameter Greater Than 2 μm [2, 7]: 2 Volume %
- Volume % With Diameter Greater Than 5 μm [2, 7]: 1 Volume %
- Volume % With Diameter Greater Than 10 μm [2, 7]: 0 Volume %
- d50 [2, 7]: 0.21 μm
- d95 within a factor of the d50 ([2]; milled chlorothalonil of the example): ≤ 2
- d95 ([2]; obtainable in 90 minutes, 0.5 mm zirconia milling media): less than 1 micron
- d50 [2, 8]: less than 0.3 microns
- d95 [2, 8]: less than 0.4 microns
- increase in number of particles per unit of mass over the standard products, factor ([2]; product obtained after 90 minutes of milling (first statement)): more than 30
- increase in number of particles per unit of mass over the standard products, factor ([2]; product obtained after 90 minutes of milling (second statement)): more than 1000
- size below which 90% of the number of particles lie ([3]; 0.1 cm zirconium beads, 3000 rpm, 10 minutes, US 2004/0024099): below 0.5 microns
- mean / average particle diameter after milling with 2 mm glass beads ([3]; U.S. Pat. No. 5,360,783): 2.3 microns
- average particle size of the product ([3]; U.S. Pat. No. 5,667,795, 40% chlorothalonil, 5.6% zinc oxide, wet mill): 3 microns
- Volume % With Diameter Greater Than 2 μm ([4]; Milling Time 0 Mins.): 95 Volume %
- Volume % With Diameter Greater Than 5 μm ([4]; Milling Time 0 Mins.): 48 Volume %
- Volume % With Diameter Greater Than 10 μm ([4]; Milling Time 0 Mins.): 10 Volume %
- d50 ([4]; Milling Time 0 Mins.): 4.9 μm
- Volume % With Diameter Greater Than 1 μm ([4]; Milling Time 30 Mins.): 68 Volume %
- Volume % With Diameter Greater Than 2 μm ([4]; Milling Time 30 Mins.): 21 Volume %
- Volume % With Diameter Greater Than 5 μm ([4]; Milling Time 30 Mins.): 4 Volume %
- Volume % With Diameter Greater Than 10 μm ([4]; Milling Time 30 Mins.): 0 Volume %
- d50 ([4]; Milling Time 30 Mins.): 1.3 μm
- Volume % With Diameter Greater Than 1 μm ([4]; Milling Time 60 Mins.): 50 Volume %
- Volume % With Diameter Greater Than 2 μm ([4]; Milling Time 60 Mins.): 11 Volume %
- Volume % With Diameter Greater Than 5 μm ([4]; Milling Time 60 Mins.): 2 Volume %
- Volume % With Diameter Greater Than 10 μm ([4]; Milling Time 60 Mins.): 4 Volume %
- d50 ([4]; Milling Time 60 Mins.): 1.0 μm
- Volume % With Diameter Greater Than 1 μm ([4]; Milling Time 90 Mins.): 94 Volume %
- Volume % With Diameter Greater Than 2 μm ([4]; Milling Time 90 Mins.): 22 Volume %
- Volume % With Diameter Greater Than 5 μm ([4]; Milling Time 90 Mins.): 23 Volume %
- Volume % With Diameter Greater Than 10 μm ([4]; Milling Time 90 Mins.): 18 Volume %
- d50 ([4]; Milling Time 90 Mins.): 1.4 μm
- Volume % With Diameter Greater Than 2 μm ([4]; Milling Time 120 Mins.): 4 Volume %
- Volume % With Diameter Greater Than 5 μm ([4]; Milling Time 120 Mins.): 0 Volume %
- Volume % With Diameter Greater Than 10 μm ([4]; Milling Time 120 Mins.): 2 Volume %
- d50 ([4]; Milling Time 120 Mins.): 1.03 μm
- Volume % With Diameter Greater Than 1 μm ([4]; Milling Time 150 Mins.): 58 Volume %
- Volume % With Diameter Greater Than 2 μm ([4]; Milling Time 150 Mins.): 6 Volume %
- Volume % With Diameter Greater Than 5 μm ([4]; Milling Time 150 Mins.): 2 Volume %
- Volume % With Diameter Greater Than 10 μm ([4]; Milling Time 150 Mins.): 0 Volume %
- d50 ([4]; Milling Time 150 Mins.): 1.12 μm
- Volume % With Diameter Greater Than 1 μm ([4]; Milling Time 180 Mins.): 53 Volume %
- Volume % With Diameter Greater Than 2 μm ([4]; Milling Time 180 Mins.): 7 Volume %
- Volume % With Diameter Greater Than 5 μm ([4]; Milling Time 180 Mins.): 2 Volume %
- Volume % With Diameter Greater Than 10 μm ([4]; Milling Time 180 Mins.): 2 Volume %
- d50 ([4]; Milling Time 180 Mins.): 1.07 μm
- Volume % With Diameter Greater Than 1 μm ([4]; Milling Time 270 Mins.): 54 Volume %
- Volume % With Diameter Greater Than 2 μm ([4]; Milling Time 270 Mins.): 8 Volume %
- Volume % With Diameter Greater Than 5 μm ([4]; Milling Time 270 Mins.): 0 Volume %
- Volume % With Diameter Greater Than 10 μm ([4]; Milling Time 270 Mins.): 2 Volume %
- d50 ([4]; Milling Time 270 Mins.): 1.09 μm
- Volume % With Diameter Greater Than 1 μm ([4]; Milling Time 450 Mins.): 56 Volume %
- Volume % With Diameter Greater Than 2 μm ([4]; Milling Time 450 Mins.): 21 Volume %
- Volume % With Diameter Greater Than 5 μm ([4]; Milling Time 450 Mins.): 8 Volume %
- Volume % With Diameter Greater Than 10 μm ([4]; Milling Time 450 Mins.): 12 Volume %
- d50 ([4]; Milling Time 450 Mins.): 1.15 μm

Structure (SMILES): CC1OC(C)OC(C)OC(C)O1 (stereo not drawn) [metaldehyde]
- diameter below which 90% of the particles lie [3, 9]: less than 2.5 microns
- mean volume diameter [3, 9]: less than 1.5 microns
